The source of these data is paper PMC9397875 (PLoS ONE, 2022).

Experiment [1] relates to MCF-12A non-tumorigenic breast epithelial cell line. The experiment can be described thus: Resazurin cytotoxicity assay, MCF-12A. Format: cell-based. Conditions: Homo sapiens, MCF-12A cells, 96 hours treatment, read-out: MCF-12A IC50 (μM) ± SD. As for the experimental part: (§1) Cytotoxicity and the IC50 of the synthetic compounds were determined using the resazurin assay, [12, 13]. The cancer cells MCF-7 hormone receptor positive breast cancer [estrogen receptor (ER)^+, progesterone receptor (PR)^+, human epidermal growth factor-2 (HER-2)^-; ATCC: HTB-22), HCC70 triple negative breast cancer (TNBC, ER^-, PR^-, HER-2^-; ATCC: CRL-2315) and a non-tumorigenic breast epithelial cell line MCF-12A (ATCC: CRL-10782), were seeded at a density of 5000 cells/well in a 96 well plate and were allowed to adhere overnight at 37°C in a 9% CO2 incubator. The cells were then treated with the synthetic compounds at a concentration range from 15.63–500.00 μM or with a vehicle control [0.2% (v/v) DMSO] for 96 hours at 37°C in a 9% CO2 incubator. Thereafter, […] of resazurin solution was added and the cells were incubated for 2–4 hours at 37°C in a 9% CO2 incubator. The fluorescence was then measured on a Spectramax spectrophotometer with excitation and emission wavelength set at 560 and 590 nm respectively. The experiment was done in technical triplicate and the data were analyzed using GraphPad Prism Inc, (USA) with half-maximal inhibitory concentration (IC50 values) determined by non-linear regression. Selectivity index values for the compounds were calculated as follows: (IC50 of compound against MCF12A cells)÷(IC50 of compound against breast cancer cells) where a SI > 1 is indicative of selective toxicity towards cancer cells vs non-cancerous cells.
(§2) The HCC70 (ATCC-CRL-2315) basal triple-negative breast cancer (TNBC) cell lines and MCF-7 luminal A cancer cell line (ATCC-HTB-22) were purchased from the American Type Culture Collection (ATCC, USA). The MCF-12A breast epithelial cell line (ATCC-CRL-10782) was a gift from Dr Anna-Mart Engelbrecht (Department of Physiology, Stellenbosch University, South Africa).
(Alamar Blue is a resazurin reagent that responds to reducing activity.)

The test system of experiment [2] is MCF-7 hormone receptor positive breast cancer cells. The experiment can be described thus: Resazurin cytotoxicity assay, MCF-7. In kind it is cell-based. As to conditions: for IC50: Homo sapiens, MCF7, MCF-7 cells, 96 hours treatment, resazurin, read-out: MCF-7 IC50 (μM) ± SD; for SI (selectivity index) for MCF-7: IC50 against MCF12A cells ÷ IC50 against MCF-7 cells. Here is the method:
as §1, §2

Experiment [3] concerns HCC70 triple negative breast cancer cells. As to the kind of experiment: Resazurin cytotoxicity assay, HCC70. As to conditions: for IC50: Homo sapiens, HCC70 cells, 96 hours treatment, resazurin, read-out: HCC70 IC50 (μM) ± SD; for SI (selectivity index) for HCC70: IC50 against MCF12A cells ÷ IC50 against HCC70 cells. In kind it is cell-based. Here is the method:
as §1, §2

In another experiment the test system is leukemia cells (K562). Also noted: method as in ref 3, 19 = [3]; doi:10.1039/C2MD20172K; 3 Woods JR , Mo H , Bieberich AA , Alavanja T , Colby DA . Amino derivatives of the sesquiterpene lactone class of natural products as prodrugs . Med.Chem.Comm . 2013; 4 ( 1 ): 27 – 33 . doi: 10.1039 || [19]; 19 Unde NR , Hiremath SV , Kulkarni GH , Kelkar GR . Amino derivatives of sesquiterpenes lactone class of natural products prodrugs . Tetrahedron Lett . 1968; 9 : 4861 – 4862 . As to conditions: antiproliferative; cited from earlier work.

For experiment [4], the system named is colorectal cancer cells (SW-620). On the set-up: method as in PMID 16766184. As to conditions: cytotoxicity; cited from earlier work.
Experiment [5] relates to colon cancer cells (SW-620). On the set-up: method as in ref 3 = [3]; doi:10.1039/C2MD20172K; 3 Woods JR , Mo H , Bieberich AA , Alavanja T , Colby DA . Amino derivatives of the sesquiterpene lactone class of natural products as prodrugs . Med.Chem.Comm . 2013; 4 ( 1 ): 27 – 33 . doi: 10.1039. As to conditions: antiproliferative; cited from earlier work.

Each structure is given as a SMILES string.

`C=C1CC[C@@H]2C(=C)CC[C@H]3[C@@H](OC(=O)[C@H]3CN(CC)CC)[C@H]12` (relative stereo) [DHLC-2, (*3aS,6aR,9aR,9bS*)-3-[(diethylamino)methyl]decahydro-6,9-bis(methylene)azuleno[4,5-b]furan-2(3H)-one]: in experiment [1], the concentration for half-maximal inhibition (IC50) (usually the concentration that gives 50% inhibition) turned out to be 8.88 ± 1.1 µM. Further, in experiment [2], the IC50 came to 0.07 µM and the “SI (selectivity index) for MCF-7” value is reported as “SI = 126.86”. In experiment [3], the IC50 worked out at 1.48 ± 1.49 µM and the “SI (selectivity index) for HCC70” value is listed as “SI = 6.00”.
For `CC[C@@]1(O)C(=O)OCc2c1cc1n(c2=O)Cc2cc3ccccc3nc2-1` [Camptothecin, reference compound], the IC50 was 104.2 ± 1.04 µM in experiment [1], 104 ± 9.92 µM in experiment [2] and 83.2 ± 1.08 µM in experiment [3].
For `C=C1CC[C@H]2C(=C)CC[C@H]3C(=C)C(=O)O[C@@H]3[C@@H]12` [DHLC, Dehydrocostus lactone, reference compound], the figures for the IC50 in experiment [1], in experiment [2] and in experiment [3] were 0.07 ± 0.07 µM, 24.7 ± 1.25 µM and 1.11 ± 1.31 µM, respectively. In addition, the “SI (selectivity index) for HCC70” value in experiment [3] is listed as “SI = 0.06”.
For `C=C1CC[C@@H]2C(=C)CC[C@H]3[C@@H](OC(=O)[C@H]3CN(C)C)[C@H]12` [DHLC-1, Guaia-4(15),10(14)-dien-12-oic acid, 13-(dimethylamino)-6-hydroxy-γ-lactone], the values for the IC50 in experiment [1], in experiment [2] and in experiment [3] were 8.47 ± 1.42 µM, 0.07 ± 0.07 µM and 0.64 ± 1.47 µM, respectively. Besides, the “SI (selectivity index) for MCF-7” value in experiment [2] is given as “SI = 121”. For the same compound, the “SI (selectivity index) for HCC70” value in experiment [3] is “SI = 13.23”.
In the case of `C=C1CC[C@@H]2C(=C)CC[C@H]3[C@@H](OC(=O)[C@H]3CNCC)[C@H]12` [DHLC-3, Guaia-4(15),10(14)-dien-12-oic acid, 13-(ethylamino)-6-hydroxy-γ-lactone], the IC50 in experiment [1] amounted to 188.2 ± 1.35 µM. For the same compound, the “SI (selectivity index) for MCF-7” value in experiment [2] was “SI = 8.33”. Besides, in experiment [3], the IC50 turned out to be 3.25 ± 1.36 µM and the “SI (selectivity index) for HCC70” value is listed as “SI = 57.91”.
As for `C=C1CC[C@@H]2C(=C)CC[C@H]3[C@@H](OC(=O)[C@H]3CNCCN)[C@H]12` [DHLC-4, 13-ethylenediamine dehydrocostus lactone], the values for the IC50 in experiment [1], in experiment [2] and in experiment [3] were 147.7 ± 1.28 µM, 4.24 ± 1.29 µM and 2.71 ± 1.3 µM, respectively. For the same compound, the “SI (selectivity index) for MCF-7” value in experiment [2] is “SI = 34.83”. For the same compound, the “SI (selectivity index) for HCC70” value in experiment [3] is “SI = 54.50”.
As to `C=C1C(=O)O[C@@H]2/C=C(\C)CC/C=C(\C)CC[C@@H]12` [costunolide], the 50% growth inhibitory concentration (GI50) (commonly the concentration giving 50% growth inhibition) in the experiment on leukemia cells (K562) is 14.5 µM; in experiment [5], 7.8 µM. The IC50 in experiment [4] was 7.8 µM.
